Converted amounts (≈) assume the structure as drawn. Like-named read-outs stand apart in the source and are kept apart here.
What was measured:
[1] = Solubility of Compound 7 in various media; type: physicochemical
Procedure: The physical properties of Compound 7 were determined.

[2] = Rabbit pharmacokinetics of Compound 9, Study 1 (retina, brain, blood); type: in vivo; settings: for concentration at 15 min / concentration at 30 min / concentration at 60 min: Study 1, 30 mg Compound 9 injected
Procedure: (§1) Compound 9 was injected into rabbits as a solution in 0.1 M phosphate buffer, pH 7.4 such that rabbits received either 30 mg of Compound 9 (Study 1) or 28 mg of Compound 9 (Study 2). The purpose of these studies was to confirm that Compound 9 could easily be converted into Compound 7 in vivo.
Study 1: Rabbits received a 1.5 mL injection of a 20 mg/mL solution of Compound 9 in 0.1 M phosphate buffer, pH 7.4. Rabbits were sacrificed at the specified time points (N=3 per time point) in the tables below and the average concentration of Compound 9 and Compound 7 was determined in the retina (Table 3), brain (Table 4) and blood (Table 5).

[3] = Rabbit pharmacokinetics of Compound 9, Study 2 (retina, brain, blood/plasma); type: in vivo; settings: rabbit
Procedure: as §1
Study 2: The purpose of this study was to determine if higher concentrations of Compound 9 and/or Compound 7 was present at earlier time points in the tissues specified. Rabbits received a 1.4 mL injection of a 20 mg/mL solution of Compound 9 in 0.1 M phosphate buffer, pH 7.4. Blood was collected from rabbits (N=6) two minutes after receiving Compound 9 to determine the blood concentration at this time point (Table 8). Rabbits were then sacrificed at the specified time points (N=3 per time point) in the tables below and the average concentrations of Compound 9 and Compound 7 were determined in the retina (Table 6), brain (Table 7) and blood (Table 8).

aggregated Aβ = aggregated Aβ (Homo sapiens, UniProt P05067); assay: Fluorescent detection of Aβ in vitro; type: binding
Aβ = assay: Example 4: detection of Aβ in the retina of a TBI (blast) mouse model; type: in vivo; settings: after Compound 9 intravenously, example in present tense
Procedure: This example is conducted to determine whether Compound 9 detects Aβ in the retina of a TBI mouse model.
Blast model mice 24 hours after injury and a non-injured mouse are administered Compound 9 intravenously. Mice retinas are scanned by scanning laser ophthalmoscopy (SLO).
Alternatively, or in addition to retinal scanning, retinal tissues are removed and stained with an anti-Aβ antibody (6E10).

prion deposits = prion deposits (Mus musculus, UniProt P04925); type: in vivo; settings: administered as Compound 10
Aβ40 [4] = molecular target: Aβ40 (Homo sapiens, UniProt P05067, D694N/E693Q); assay: Example 8: in vivo retinal imaging and ex vivo IHC of APPSwDI, PSAPP and wild type mice; parameters: species or system mouse; settings: APPSwDI mouse
Aβ40 [5] = assay: as above; parameters: species or system mouse; settings: PSAPP mouse
[6] = molecular target: amyloid deposits associated with CAA (Homo sapiens, UniProt P05067); assay: Example 8: ex vivo staining of human CAA brain tissue; type: binding
Excerpt: Post-mortem brain tissue from patients diagnosed with CAA were examined to de-risk the translation from the limited robust preclinical animal models to humans. This study was designed to understand the fundamental basis of fluorescently detecting amyloids using human tissue. […] Human CAA brain tissue and healthy control brain tissue was acquired (University of California, San Diego, CA). […] All CAA patients were female and ranged in age from 70-93 years. Control brains were obtained from cognitively normal patients that ranged in age from 82-94 years from both male and female donors.

α-syn deposits = α-syn deposits (Homo sapiens, UniProt P37840); assay: Example 9: retinal imaging of Line 61 Parkinson's Disease Tg mouse model; type: in vivo
Excerpt: Two transgenic mouse models of Parkinson's Disease (D-line and Line 61) were examined for retinal α-syn deposits. The models selected produce α-syn deposition in the brain, but to date production in the retina had not been determined. […] After live imaging, mice were sacrificed, and the brain and retina were harvested for immunofluorescence and biochemistry.
Accordingly, Line 61 model manifest retinal α-syn in ~30% of mice and was useful in showing the utility of the disclosed compounds. […] Brain tissue was extracted post-mortem from mice after the last imaging session and stained with DAPI and a SYN1 antibody confirming the presence of α-syn in the Line 61 Mouse brain.
To confirm objects detected in vivo were α-syn, retinal tissue was extracted post-mortem from mice after the last imaging session and stained with DAPI and a SYN1 antibody (FIG. 11).

[7] = blood, other: injection (site not specified), read-out: Avg Conc., blood
[8] = retina, other: injection (kind of injection not stated), read-out: Avg Conc., retina
[9] = brain, other: injection (site or type of injection not stated), Study 2, 28 mg Compound 9 injected, read-out: Avg Conc., brain
[10] = plasma, other: injection (site not specified), Study 2, 28 mg Compound 9 injected, read-out: Avg Conc., plasma
[11] = retina, other: injection (site not stated), Study 2, 28 mg Compound 9 injected, read-out: Avg Conc., retina
[12] = 15 minutes after iv Compound 10
[13] = labelling from in vivo injection of Compound 10

Sequence of prion deposits (P04925 23-230 limits assumed): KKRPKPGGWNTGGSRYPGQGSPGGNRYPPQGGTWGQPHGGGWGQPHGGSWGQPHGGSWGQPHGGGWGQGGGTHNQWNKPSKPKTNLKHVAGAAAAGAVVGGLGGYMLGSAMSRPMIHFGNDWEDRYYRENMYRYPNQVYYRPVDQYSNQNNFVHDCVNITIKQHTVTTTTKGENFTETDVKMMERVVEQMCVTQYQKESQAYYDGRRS

**Q.** Which solubility ([1]; SGF, simulated gastric fluid) does the source give for `N#C/C(=C\c1ccc2cc(N3CCCCC3)ccc2c1)C(=O)NCCOCCOCCO` [Compound 7, (E)-2-cyano-N-(2-(2-(2-hydroxyethoxy)ethoxy)ethyl)-3-(6-(piperidin-1-yl)naphthalen-2-yl)acrylamide] here?
**A.** 3600 µg/mL (≈ 8230 µM)

**Q.** And the solubility ([1]; castor oil, oil or lipid)?
**A.** > 9000 µg/mL

**Q.** And the solubility ([1]; n-octanol, organic solvent or mixture)?
**A.** > 8000 µg/mL

**Q.** What about the solubility ([1]; pH 4.0 buffer, pH 4, aqueous buffer) of the same molecule?
**A.** 70 µg/mL (≈ 160 µM)

**Q.** And the solubility ([1]; pH 7.0 buffer, pH 7, aqueous buffer)?
**A.** 4.6 µg/mL (≈ 10.5 µM)

**Q.** What about the solubility ([1]; pH 7.4 buffer, pH 7.4, aqueous buffer) of the same molecule?
**A.** 3.3 µg/mL (≈ 7.54 µM)

**Q.** What about the solubility ([1]; pH 9.0 buffer, pH 9, aqueous buffer) of the same molecule?
**A.** 4.8 µg/mL (≈ 11 µM)

**Q.** What about the solubility ([1]; water) of the same molecule?
**A.** 1.7 µg/mL (≈ 3.89 µM)

**Q.** And the “Kp,brain by 30 minutes” value ([2]; 30 minutes after injection of Compound 9)?
**A.** significantly decreased to undetectable values

**Q.** What about the concentration at 15 min [2, 7] of the same molecule?
**A.** 217 ± 31.2 ng/mL

**Q.** And the concentration at 30 min [2, 7]?
**A.** 9.41 ± 1.89 ng/mL

**Q.** And the concentration at 60 min [2, 7]?
**A.** 2.1 ± 2.43 ng/mL

**Q.** And the concentration at 15 min ([2]; brain, other: injection (site not specified), read-out: Avg Conc., brain)?
**A.** 0.987 ± 0.273 ng/g

**Q.** What about the “Circulation time in the retina” value ([2]; levels significantly decreasing over an hour) of the same molecule?
**A.** relatively short

**Q.** What about the concentration at 15 min [2, 8] of the same molecule?
**A.** 10.1 ± 7.3 ng/g

**Q.** And the concentration at 30 min [2, 8]?
**A.** 2.13 ± 1.71 ng/g

**Q.** And the concentration at 60 min [2, 8]?
**A.** 0.779 ± 0.325 ng/g

**Q.** What about the concentration at 5 min [3, 9] of the same molecule?
**A.** 316 ± 91.6 ng/g

**Q.** What about the concentration at 10 min [3, 9] of the same molecule?
**A.** 68.1 ± 8.86 ng/g

**Q.** What about the concentration at 2 min ([3]; plasma, other: injection (site not specified), Study 2, 28 mg Compound 9 injected, 2 min, read-out: Avg Conc., plasma) of the same molecule?
**A.** 1480 ± 409 ng/mL

**Q.** And the concentration at 5 min [3, 10]?
**A.** 975 ± 317 ng/mL

**Q.** What about the concentration at 10 min [3, 10] of the same molecule?
**A.** 251 ± 13.9 ng/mL

**Q.** And the “Time at which Kp,brain was highest” value ([3]; post-dose of Compound 9)?
**A.** 5 min

**Q.** And the “Delivery past the blood brain barrier and into retinal tissue” value ([3]; via administration of Compound 9 diammonium salt)?
**A.** delivered past the blood brain barrier (BBB) and, more importantly, into retinal tissue

**Q.** What about the concentration at 5 min [3, 11] of the same molecule?
**A.** 682 ± 119 ng/g

**Q.** What about the concentration at 10 min [3, 11] of the same molecule?
**A.** 183 ± 152 ng/g

**Q.** And the concentration at 5 min ([3]; retina, Study 2, 28 mg Compound 9 injected, read-out: Avg Conc., retina)?
**A.** 682 ng/g

**Q.** What about the “Detection of aggregated Aβ in vitro” value (aggregated Aβ) of the same molecule?
**A.** demonstrated the ability to detect aggregated Aβ

**Q.** What about the “Fluorescent labelling of retinal deposits” value (Aβ; mouse with blast injury) of the same molecule?
**A.** fluorescently labels retinal deposits that are visible upon fluorescent activation

**Q.** What about the “Fluorescent enhancement in retinal tissue” value (Aβ; uninjured mouse) of the same molecule?
**A.** does not display any fluorescent enhancement

**Q.** And the “Labelling of retinal prion deposits in vivo” value (prion deposits; pre-symptomatic prion-inoculated mice)?
**A.** successfully labelled large objects around the optic disk and vasculature believed to be prion deposits

**Q.** What about the “Labelling of retinal prion deposits in vivo” value (prion deposits; terminally diseased prion mice) of the same molecule?
**A.** successfully labelled large objects around the optic disk and vasculature believed to be prion deposits

**Q.** What about the “Labelling in brain sections, ex vivo IHC” value (Aβ40 [4]; [12]) of the same molecule?
**A.** amyloid deposits along a vessel labeled with Compound 7 and 6E10

**Q.** And the “Structures labelled in retinal tissue” value (Aβ40 [4]; administered as Compound 10)?
**A.** labels both vessels and diffuse deposits in the retinal tissue

**Q.** What about the “Co-localization with 6E10 in retina, ex vivo IHC” value (Aβ40 [4]; [13]) of the same molecule?
**A.** co-localized with a sequence specific antibody for Aβ (6E10)

**Q.** And the “Labelling in brain sections, ex vivo IHC” value (Aβ40 [5]; [12])?
**A.** labeling of amyloid plaques with Compound 7 and 6E10

**Q.** And the “Co-localization with 6E10 in retina, ex vivo IHC” value (Aβ40 [5]; [13])?
**A.** co-localization of Compound 7 with 6E10

**Q.** What about the Staining ([6]; healthy control human brains) of the same molecule?
**A.** absent

**Q.** What about the “Staining of amyloid deposits” value ([6]; human CAA brains) of the same molecule?
**A.** successfully stains amyloid deposits associated with CAA

**Q.** What about the “Specificity for α-syn deposits” value (α-syn deposits; Line 61 model, via administration of Compound 10) of the same molecule?
**A.** specific for α-syn deposits associated with Parkinson's Disease

**Q.** And the “Co-localization with SYN1” value (α-syn deposits; brain and retinal tissue of Tg mice)?
**A.** co-localizes with an anti-alpha-synuclein antibody (SYN1)
